Test results from PMC2920453 (Chemistry & biology, 2010).

Legend:
FU97 = experiment: cells; conditions: Homo sapiens, Fu97, 72 h
TOV-112D = experiment: cells; conditions: Homo sapiens, TOV112D, 72 h
G-402 = experiment: cells; conditions: Homo sapiens, G-402, 72 h
A2780 [1] = experiment: cells; conditions: Homo sapiens, A2780, 72 h
SNU-16 [2] = experiment: cells; conditions: Homo sapiens, SNU-16, 72 h
SBC-3 [3] = experiment: Survival pathways immunoblot; conditions: 200 nM, 6 hours
JAR = experiment: cells; conditions: Homo sapiens, 72 h
A2780 [4] = experiment: Survival pathways immunoblot; conditions: 200 nM, 6 hours
NCI-H1703 = experiment: cells; conditions: Homo sapiens, NCI-H1703, 72 h
R082-W-1 = experiment: cells; conditions: Homo sapiens, 72 h
A2.1 = experiment: cells; conditions: Homo sapiens, 72 h
SNU-16 [5] = experiment: Pro-survival signaling; conditions: 200 nM, 6 hours
wild-type MCF10A cells = experiment: Growth of wild-type MCF10A cells; assay type: cell-based
G-401 = experiment: cells; conditions: Homo sapiens, G-401, 72 h
Hec-1B cells = experiment: Endometrial carcinoma cell proliferation; conditions: wild type FGFR2; 4 days
SBC-3 [6] = experiment: cells; conditions: Homo sapiens, SBC-3, 72 h
PA-1 = experiment: cells; conditions: Homo sapiens, PA-1, 72 h
WT iFGFR1 MCF10A cells = experiment: iFGFR1-dependent MCF10A proliferation; conditions: Homo sapiens, MCF-10A, 48 h
H520 = experiment: cells; conditions: Homo sapiens, NCI-H520, 72 h
RT4 = experiment: cells; conditions: Homo sapiens, RT-4, 72 h
wild-type Ba/F3 cells = experiment: cells; conditions: Mus musculus, BaF3, 48 h
LU99A = experiment: cells; conditions: Homo sapiens, LU-99A, 72 h
VM-CUB1 = experiment: cells; conditions: Homo sapiens, VM-CUB-1, 72 h
KATO-III = experiment: Pro-survival signaling; conditions: 200 nM, 6 hours
FLT1 = FLT1 (Homo sapiens, UniProt P17948); experiment: Z'-lyte kinase assay; assay type: biochemical
JHH-7 = experiment: cells; conditions: Homo sapiens, JHH7, 72 h
[7] = system: iFGFR1-activated MCF10A cells; experiment: 3D Matrigel culture morphogenesis; assay type: cell-based; conditions: 3D culture
RD-ES = experiment: cells; conditions: Homo sapiens, 72 h
FGFR1 = FGFR1 (Homo sapiens, UniProt P11362); conditions: ref Kammasud et al., 2007; cited from earlier work
MFE-296 cells = experiment: Endometrial carcinoma cell proliferation; conditions: activating FGFR2 mutation; 4 days
V561M FGFR1 = V561M FGFR1 (Homo sapiens, UniProt P11362, V561M); conditions: 10 μM, 1 hour drug treatment, HEK293
KATO III = experiment: cells; conditions: Homo sapiens, 72 h
STS-0421 = experiment: cells; conditions: Homo sapiens, 72 h
AN3CA cells = experiment: Endometrial carcinoma cell proliferation; conditions: activating FGFR2 mutation; 4 days

V561M FGFR1, sequence (P11362 22-822 V561M): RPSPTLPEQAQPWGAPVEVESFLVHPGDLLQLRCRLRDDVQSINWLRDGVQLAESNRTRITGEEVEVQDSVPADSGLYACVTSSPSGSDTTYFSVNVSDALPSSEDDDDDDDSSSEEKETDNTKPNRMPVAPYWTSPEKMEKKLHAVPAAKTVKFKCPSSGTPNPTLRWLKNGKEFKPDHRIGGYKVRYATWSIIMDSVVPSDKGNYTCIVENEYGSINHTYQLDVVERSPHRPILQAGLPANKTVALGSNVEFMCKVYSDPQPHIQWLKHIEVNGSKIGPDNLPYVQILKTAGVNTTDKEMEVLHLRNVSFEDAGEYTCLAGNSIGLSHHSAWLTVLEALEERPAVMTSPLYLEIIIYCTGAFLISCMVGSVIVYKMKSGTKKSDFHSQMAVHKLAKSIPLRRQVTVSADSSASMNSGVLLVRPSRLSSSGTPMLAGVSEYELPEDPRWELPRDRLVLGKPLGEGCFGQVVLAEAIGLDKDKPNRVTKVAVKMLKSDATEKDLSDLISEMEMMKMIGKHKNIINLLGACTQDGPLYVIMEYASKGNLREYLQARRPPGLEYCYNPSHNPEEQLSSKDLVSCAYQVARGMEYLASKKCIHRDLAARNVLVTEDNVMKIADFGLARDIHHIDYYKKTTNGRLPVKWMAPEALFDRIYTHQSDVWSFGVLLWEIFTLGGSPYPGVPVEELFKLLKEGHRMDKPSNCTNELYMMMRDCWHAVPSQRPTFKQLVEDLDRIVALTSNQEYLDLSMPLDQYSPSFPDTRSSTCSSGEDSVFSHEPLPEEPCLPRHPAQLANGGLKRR
FGFR1, sequence (P11362 22-822): as the sequence (P11362 22-822 V561M) above, with M540V counted along it
FLT1, sequence (P17948 27-1338): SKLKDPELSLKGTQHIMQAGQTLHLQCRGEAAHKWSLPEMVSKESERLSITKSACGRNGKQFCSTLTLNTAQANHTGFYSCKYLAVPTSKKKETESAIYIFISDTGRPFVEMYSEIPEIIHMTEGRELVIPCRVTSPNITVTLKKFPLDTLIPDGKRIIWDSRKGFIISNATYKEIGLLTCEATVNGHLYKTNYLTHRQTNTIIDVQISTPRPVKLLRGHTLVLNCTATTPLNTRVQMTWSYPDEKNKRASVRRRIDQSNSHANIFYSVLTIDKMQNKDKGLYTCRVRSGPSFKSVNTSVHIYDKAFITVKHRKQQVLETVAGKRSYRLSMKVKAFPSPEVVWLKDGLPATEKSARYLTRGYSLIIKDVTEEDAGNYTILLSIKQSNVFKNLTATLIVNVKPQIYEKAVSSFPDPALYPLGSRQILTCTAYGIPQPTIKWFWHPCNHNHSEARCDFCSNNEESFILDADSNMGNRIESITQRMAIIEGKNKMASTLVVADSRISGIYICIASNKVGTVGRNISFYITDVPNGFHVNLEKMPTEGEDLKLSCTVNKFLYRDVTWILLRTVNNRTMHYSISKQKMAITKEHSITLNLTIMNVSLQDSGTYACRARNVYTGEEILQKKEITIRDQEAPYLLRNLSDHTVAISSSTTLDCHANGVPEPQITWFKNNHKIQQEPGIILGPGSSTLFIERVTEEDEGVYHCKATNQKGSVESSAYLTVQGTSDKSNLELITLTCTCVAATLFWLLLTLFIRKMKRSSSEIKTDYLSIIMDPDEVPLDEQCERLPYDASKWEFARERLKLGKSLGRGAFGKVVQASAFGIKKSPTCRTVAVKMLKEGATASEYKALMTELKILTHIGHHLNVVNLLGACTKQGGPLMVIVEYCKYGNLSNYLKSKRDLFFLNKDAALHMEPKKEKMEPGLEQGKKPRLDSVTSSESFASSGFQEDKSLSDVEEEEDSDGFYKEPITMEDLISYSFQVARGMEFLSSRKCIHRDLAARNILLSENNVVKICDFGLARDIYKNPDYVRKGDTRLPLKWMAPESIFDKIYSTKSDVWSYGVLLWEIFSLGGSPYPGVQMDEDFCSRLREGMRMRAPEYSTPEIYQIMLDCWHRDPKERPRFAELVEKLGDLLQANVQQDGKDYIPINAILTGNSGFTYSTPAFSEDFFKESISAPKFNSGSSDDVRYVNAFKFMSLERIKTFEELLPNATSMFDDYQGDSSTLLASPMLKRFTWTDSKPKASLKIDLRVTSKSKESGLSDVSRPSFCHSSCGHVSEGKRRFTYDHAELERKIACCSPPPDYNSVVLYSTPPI

SMILES	EC50 (FU97)	EC50 (TOV-112D)	EC50 (G-402)	EC50 (A2780 [1])	EC50 (SNU-16 [2])	EC50 (JAR)	EC50 (NCI-H1703)	EC50 (R082-W-1)	EC50 (A2.1)	effect on growth of wild-type MCF10A cells (wild-type MCF10A cells)	EC50 (G-401)	sensitivity in cell proliferation assay (Hec-1B cells)	EC50 (SBC-3 [6])	EC50 (PA-1)	EC50 (H520)	EC50 (RT4)	EC50 (LU99A)	EC50 (VM-CUB1)	EC50 (JHH-7)	EC50 (RD-ES)	other results
C=CC(=O)Nc1cccc(CN2C(=O)N(c3c(Cl)c(OC)cc(OC)c3Cl)Cc3cnc(NCCCCN(CC)CC)nc32)c1 [FIIN-1]	650 nM	> 5 µM	1650 nM	220 nM	30 nM	> 5 µM	> 5 µM	> 5000 nM	230 nM	neither FIIN-1 nor PD173074 affected the growth	140 nM	not sensitive	80 nM	4.6 µM	4.5 µM	70 nM	> 5000 nM	> 5 µM	> 5 µM	2300 nM	effect on cell survival and survival pathways (SBC-3 [3]): inhibited; effect on cell survival and survival pathways (A2780 [4]): inhibited; effect on pro-survival Akt and Erk1/2 pathways (SNU-16 [5]): potently suppressed; EC50 (WT iFGFR1 MCF10A cells): 2.7 nM; EC50 (wild-type Ba/F3 cells): > 10 µM; effect on pro-survival Akt and Erk1/2 pathways (KATO-III): potently suppressed; IC50 (FLT1): 661 nM; effect on abnormal morphogenesis induced by iFGFR1 activation ([7]; 20 nM): prevented
COc1cc(OC)cc(-c2ccc3c(c2)NC(=O)/C3=C\c2[nH]c(C)c(CCC(=O)O)c2C)c1 [NP603]																					IC50 (FGFR1): 400 nM
CCN(CC)CCCCNc1ncc2cc(-c3cc(OC)cc(OC)c3)c(NC(=O)NC(C)(C)C)nc2n1 [PD173074, reference compound]	1160 nM	> 5 µM	2480 nM	820 nM	120 nM	> 5 µM	> 5 µM	2500 nM	340 nM	neither FIIN-1 nor PD173074 affected the growth	210 nM	not sensitive	320 nM	> 5 µM	> 5 µM	50 nM	3000 nM	> 5 µM	> 5 µM	> 5000 nM	EC50 (sensitivity in cell proliferation assay) (MFE-296 cells): sub-micromolar; inhibition of autophosphorylation of FGFR1-V561M (V561M FGFR1): incapable of inhibiting; EC50 (KATO III): 22 nM; EC50 (STS-0421): 120 nM; EC50 (sensitivity in cell proliferation assay) (AN3CA cells): sub-micromolar; effect on abnormal morphogenesis induced by iFGFR1 activation ([7]; 1 μM): prevented
